Laboratory results: patent US20120202690A1, “HERBICIDAL COMPOUNDS” (SYNGENTA LIMITED, priority 2009, published 2012)

Experiments:
Type in all cases: in vivo
[1] = test system: Alopecurus myosuroides (ALOMY); assay: Pre-emergence biological efficacy, glasshouse, 1000 g/ha, evaluated after 13 days (100=total damage to plant; 0=no damage to plant); conditions: rate 1,000 g/ha; for pest or weed control at 1000 g/ha: Alopecurus myosuroides, 312 h, read-out: Percentage damage caused to weed species, pre-emergence, ALOMY
Experimental: (§1) Seeds of Alopecurus myosuroides (ALOMY), Setaria faberi (SETFA), Echinochloa crus-galli (ECHCG), Solanum nigrum (SOLNI), Amaranthus retroflexus (AMARE) and Ipomoea hederaceae (IPOHE) were sown in standard soil in pots. […] The test plants were then grown under controlled conditions in the glasshouse (at 24/16° C., day/night; 14 hours light; 65% humidity) and watered twice daily. […]

Setaria faberi (SETFA) [2] = assay: as above; conditions: rate 1,000 g/ha; for pest or weed control at 1000 g/ha: Setaria faberi, 312 h, read-out: Percentage damage caused to weed species, pre-emergence, SETFA
Experimental: as §1

[3] = test system: Amaranthus retroflexus (AMARE); assay: as above; conditions: rate 1,000 g/ha; for pest or weed control at 1000 g/ha: Amaranthus retroflexus, 312 h, read-out: Percentage damage caused to weed species, pre-emergence, AMARE
Experimental: as §1

[4] = test system: Echinochloa crus-galli (ECHCG); assay: as above; conditions: rate 1,000 g/ha; for pest or weed control at 1000 g/ha: Echinochloa crus-galli, 312 h, read-out: Percentage damage caused to weed species, pre-emergence, ECHCG
Experimental: as §1

Solanum nigrum (SOLNI) [5] = assay: as above; conditions: rate 1,000 g/ha; for pest or weed control at 1000 g/ha: Solanum nigrum, 312 h, read-out: Percentage damage caused to weed species, pre-emergence, SOLNI
Experimental: as §1

[6] = test system: Ipomoea hederaceae (IPOHE); assay: as above; conditions: rate 1,000 g/ha; for pest or weed control at 1000 g/ha: Ipomoea, 312 h, read-out: Percentage damage caused to weed species, pre-emergence, IPOHE
Experimental: as §1

[7] = test system: Alopecurus myosuroides (ALOMY); assay: Post-emergence biological efficacy, glasshouse, 500 or 1000 g/ha, evaluated after 13 days (100=total damage to plant; 0=no damage to plant); conditions: rate 1,000 g/ha; for pest or weed control at 1000 g/ha: Alopecurus myosuroides, 312 h, read-out: Percentage damage caused to weed species, post-emergence, ALOMY
Experimental: as §1, with “Echinochloa […]),” for “Echinochloa crus-galli (ECHCG),”, “grown on” for “grown”, “in a” for “in the”

Setaria faberi (SETFA) [8] = assay: as above; conditions: rate 1,000 g/ha; for pest or weed control at 1000 g/ha: Setaria faberi, 312 h, read-out: Percentage damage caused to weed species, post-emergence, SETFA
Experimental: as §1, with “Echinochloa […]),” for “Echinochloa crus-galli (ECHCG),”, “grown on” for “grown”, “in a” for “in the”

[9] = test system: Amaranthus retroflexus (AMARE); assay: as above; conditions: rate 1,000 g/ha; for pest or weed control at 1000 g/ha: Amaranthus retroflexus, 312 h, read-out: Percentage damage caused to weed species, post-emergence, AMARE
Experimental: as §1, with “Echinochloa […]),” for “Echinochloa crus-galli (ECHCG),”, “grown on” for “grown”, “in a” for “in the”

[10] = test system: Echinochloa crusgaffi (ECHCG); assay: as above; conditions: rate 1,000 g/ha; for pest or weed control at 1000 g/ha: Echinochloa, 312 h, read-out: Percentage damage caused to weed species, post-emergence, ECHCG
Experimental: as §1, with “Echinochloa […]),” for “Echinochloa crus-galli (ECHCG),”, “grown on” for “grown”, “in a” for “in the”

Solanum nigrum (SOLNI) [11] = assay: as above; conditions: rate 1,000 g/ha; for pest or weed control at 1000 g/ha: Solanum nigrum, 312 h, read-out: Percentage damage caused to weed species, post-emergence, SOLNI
Experimental: as §1, with “Echinochloa […]),” for “Echinochloa crus-galli (ECHCG),”, “grown on” for “grown”, “in a” for “in the”

[12] = test system: Ipomoea hederaceae (IPOHE); assay: as above; conditions: rate 1,000 g/ha; for pest or weed control at 1000 g/ha: Ipomoea, 312 h, read-out: Percentage damage caused to weed species, post-emergence, IPOHE
Experimental: as §1, with “Echinochloa […]),” for “Echinochloa crus-galli (ECHCG),”, “grown on” for “grown”, “in a” for “in the”

| SMILES | pest or weed control at 1000 g/ha [1] [%] | pest or weed control at 1000 g/ha (Setaria faberi (SETFA) [2]) [%] | pest or weed control at 1000 g/ha [3] [%] | pest or weed control at 1000 g/ha [4] [%] | pest or weed control at 1000 g/ha (Solanum nigrum (SOLNI) [5]) [%] | pest or weed control at 1000 g/ha [6] [%] | pest or weed control at 1000 g/ha [7] [%] | pest or weed control at 1000 g/ha (Setaria faberi (SETFA) [8]) [%] | pest or weed control at 1000 g/ha [9] [%] | pest or weed control at 1000 g/ha [10] [%] | pest or weed control at 1000 g/ha (Solanum nigrum (SOLNI) [11]) [%] | pest or weed control at 1000 g/ha [12] [%] | also measured |
| --- | --- | --- | --- | --- | --- | --- | --- | --- | --- | --- | --- | --- | --- |
| O=C(O)c1nc(C2CC2)nc2c1ccn2Cc1ccccc1[N+](=O)[O-] [Compound 8-1, 4-Carboxy-2-cyclopropyl-7-(2-nitrophenyl-methyl)-7H-pyrrolo[2,3-d]pyrimidine] | 0 | 0 | 0 | 0 | 0 | 0 | 0 | 0 | 0 | 10 | 30 | 40 |  |
| COC(=O)c1nc(Cl)nc2c1cc(C)n2Cc1ccco1 [Compound 11-126, 2-chloro-7-(2-furanylmethyl)-4-methoxycarbonyl-6-methyl-7H-pyrrolo[2,3-d]pyrimidine] | 0 | 0 | 0 | 0 | 0 | 0 | 0 | 0 | 0 | 0 | 20 | 0 |  |
| COC(=O)c1nc(-c2ccc(Cl)c(N(C)C)c2F)nc2[nH]c(C)c(C)c12 [Compound 1-120, 2-(4-Chloro-3-dimethylamino-2-fluorophenyl)-5,6-dimethyl-4-methoxycarbonyl-7H-pyrrolo[2,3-d]pyrimidine] | 0 | 0 | 0 | 0 | 0 | 0 | 0 | 0 | 10 | 0 | 20 | 20 |  |
| CCCCCCCCOC(=O)c1nc(-c2ccc(Cl)c(OC)c2F)cc2[nH]cc(C)c12 [Compound 22-77] |  |  |  |  |  |  |  |  |  |  |  |  | Percentage damage caused to weed species, pre-emergence, ALOMY [1]: 10%; Percentage damage caused to weed species, pre-emergence, SETFA (Setaria faberi (SETFA) [2]): 20%; Percentage damage caused to weed species, pre-emergence, AMARE [3]: 20%; Percentage damage caused to weed species, pre-emergence, ECHCG [4]: 0%; Percentage damage caused to weed species, pre-emergence, SOLNI (Solanum nigrum (SOLNI) [5]): 80%; Percentage damage caused to weed species, pre-emergence, IPOHE [6]: 90%; Percentage damage caused to weed species, post-emergence, ALOMY [7]: 10%; Percentage damage caused to weed species, post-emergence, SETFA (Setaria faberi (SETFA) [8]): 0%; Percentage damage caused to weed species, post-emergence, AMARE [9]: 70%; Percentage damage caused to weed species, post-emergence, ECHCG [10]: 0%; Percentage damage caused to weed species, post-emergence, SOLNI (Solanum nigrum (SOLNI) [11]): 90%; Percentage damage caused to weed species, post-emergence, IPOHE [12]: 30% |
| CCCCOCCOC(=O)c1nc(-c2ccc(Cl)c(OC)c2F)nc2[nH]cc(C)c12 [Compound 1-83, 4-[(2-n-Butoxy)-ethoxycarbonyl]-2-(4-chloro-2-fluoro-3-methoxyphenyl)-5-methy-7H-pyrrolo[2,3-d]pyrimidine] | 0 | 0 | 40 | 0 | 30 | 20 | 0 | 10 | 70 | 10 | 70 | 40 |  |
| COC(=O)c1nc(-c2ccc(Cl)c(OC)c2F)nc2[nH]c(-c3ccccc3)c(C)c12 [Compound 1-108, 2-(4-Chloro-2-fluoro-3-methoxyphenyl)-4-methoxycarbonyl-5-methyl-6-phenyl-7H-pyrrolo[2,3-d]pyrimidine] | 0 | 0 | 0 | 0 | 0 | 0 | 0 | 0 | 0 | 0 | 30 | 50 |  |
| COc1c(Cl)ccc(-c2cc3[nH]cc(C)c3c(C(=O)O)n2)c1F [Compound 22-63, 4-Carboxy-6-(4-chloro-2-fluoro-3-methoxyphenyl)-3-methyl-1H-pyrrolo[3,2-c]pyridine] | 0 | 0 | 20 | 0 | 60 | 70 | 40 | 90 | 70 | 70 | 80 | 70 |  |
| Cc1cc2c(C(=O)O)nc(-c3ccc(Cl)c(F)c3)nc2n1Cc1ccccc1[N+](=O)[O-] [Compound 8-21, 4-Carboxy-2-(4-chloro-3-fluorophenyl)-6-methyl-7-(2-nitrophenyl-methyl)-7H-pyrrolo[2,3-d]pyrimidine] | 0 | 20 |  | 0 | 0 | 0 | 10 | 0 | 0 | 0 | 20 | 10 |  |
| COc1c(Cl)ccc(-c2nc(C(=O)OCc3ccccc3)c3c(C)c[nH]c3n2)c1F [Compound 1-86, 4-Benzyloxycarbonyl-2-(4-chloro-2-fluoro-3-methoxyphenyl)-5-methyl-7H-pyrrolo[2,3-d]pyrimidine] | 0 | 0 |  | 0 | 10 | 0 | 0 | 10 | 40 | 0 | 60 | 30 |  |
| COc1c(Cl)ccc(-c2nc(C(=O)O)c3cc[nH]c3n2)c1F [Compound 1-61, 4-Carboxy-2-(4-chloro-2-fluoro-3-methoxyphenyl)-7H-pyrrolo[2,3-d]pyrimidine] | 0 | 0 |  | 0 |  | 0 | 10 | 40 | 100 | 20 | 70 | 70 |  |
| COC(=O)c1nc(-c2ccc(Cl)c(OC)c2F)cc2c1c(C)cn2C(C)=O [Compound 36-64, 6-(4-Chloro-2-fluoro-3-methoxyphenyl)-4-methoxycarbonyl-3-methyl-1-methylcarbonyl-1H-pyrrolo[3,2-c]pyridine] | 0 | 0 |  | 0 | 50 | 20 | 0 | 10 | 70 | 0 | 80 | 70 |  |
